Results published in patent US20240058392A1, “COMPOSITION COMPRISING SEA CUCUMBER GENITAL GLAND EXTRACT, COMPOUND DERIVED FROM SEA CUCUMBER OVARY EXTRACT, AND USE THEREOF” (BIOINFORMATICS & MOLECULAR DESIGN RESEARCH CENTER, priority 2020, published 2024).
Like-named read-outs stand apart in the source and are kept apart here.

Tests used:
3T3-L1 cells [1] = assay: Glucose Uptake-Glo Assay, saponin compounds; type: cell-based; conditions: Mus musculus, read-out: Fold Relative to Control (glucose uptake)
Procedure: The 3T3-L1 cells were cultured in a high glucose DMEM medium in which 10% Calf serum and penicillin-streptomycin were added, and subcultured per 2-3 days. […] After 2 days, it was replaced with a medium containing insulin, and the medium was replaced again per 2 days to induce differentiation.
For the differentiation-completed 3T3-L1 cells, starvation was conducted for 16 hours, and then a sea cucumber-derived single compound was treated in a serum-free medium at a concentration of 2.5 ug/mL for 6 hours. The cultured supernatant was recovered and for the 3T3-L1 cells, using Glucose Uptake-Glo Assay Kit, the glucose transport activity degree was measured using a luminometer.

[2] = test system: FAS, PPARγ, C/EBPα, and FABP4; assay: Expression of adipogenesis-related proteins in 3T3-L1 cells treated with single compounds; type: cell-based
Procedure: In order to investigate the effect on expression of the adipocytes differentiation-related proteins by the sea cucumber extract, expression of the related proteins was confirmed through western blot. The differentiation-completed 3T3-L1 cells were washed with PBS, and then lysis was conducted with RIPA buffer, and then the proteins were separated by molecular weight through SDS-PAGE. After that, it was transferred to a PVDF membrane and it was blocked using 5% skim milk for 30 minutes. Then, it was reacted with a primary antibody, and then a secondary antibody was attached to confirm protein expression using an ECL solution.
In order to figure out the mechanism of the fat accumulation inhibitory efficacy of the single compound examined above, the degree of expression of proteins of FAS, PPARγ, C/EBPα, and FABP4, which were adipogenesis-related proteins was confirmed.

3T3-L1 cells [3] = test system: 3T3-L1 cells
3T3-L1 cells [4] = assay: 3T3-L1 cell viability of single compounds separated from sea cucumber ovary extract; conditions: single compounds 2.5-5 μg/ml
3T3-L1 cells [5] = assay: Oil red O staining, single compounds of sea cucumber ovary extract; type: cell-based
Procedure: The differentiation-completed 3T3-L1 cells were fixed with 4% formaldehyde for 1 hour, and then fats were stained using a 0.5% Oil red O staining solution to confirm the degree of differentiation. For quantitative analysis of adipose differentiation, the dye stained in the cells was dissolved with 100% isopropyl alcohol and the absorbance was measured at 500 nm.
In order to investigate the effect on adipose differentiation of the 3T3-L1 cells of the single compound in the sea cucumber ovary extract, a total 8 of compounds were treated with a differentiation medium at a concentration of 2.5 and 5 μg/ml for 48 hours.

[6] = differentiated 3T3-L1 cells, compound 2.5 ug/mL, 6 hours, serum-free medium
[7] = 1 μg/ml, compared to the control group

Row | SMILES | fold induction at 2.5 µg/mL (3T3-L1 cells [1]; 3T3-L1, 6 h) | expression of adipogenesis-related proteins FAS, PPARγ, C/EBPα, and FABP4 [2] | fold induction at 2.5 µg/mL (3T3-L1 cells [1]; [6]) | also measured
1 | C=C(C)CCC[C@@]1(C)OC(=O)C23CC=C4C(CCC5C(C)(C)[C@@H](O[C@@H]6OCC(O[C@@H]7OC(CO)C(O)[C@H](O[C@@H]8OC(CO)C(O)[C@H](OC)C8O)C7O)[C@H](O)C6O[C@@H]6OC(C)C(O[C@@H]7OC(CO)C(O)[C@H](O[C@@H]8OC(CO)C(O)[C@H](OC)C8O)C7O)[C@H](O)C6O)CC[C@]45C)C2(C)CC(=O)C31 (stereo partly shown) [S8, holotoxin A] | 1.43 | a definite decrease in protein expression |  | 
2 | C=C(C)CCC[C@@]1(C)OC(=O)C23CC=C4C(CCC5C(C)(C)[C@@H](O[C@@H]6OCC(O[C@@H]7OC(CO)C(O)[C@H](O[C@@H]8OC(CO)C(O)[C@H](O)C8O)C7O)[C@H](O)C6O[C@@H]6OC(C)C(O[C@@H]7OC(CO)C(O)[C@H](O[C@@H]8OC(CO)C(O)[C@H](OC)C8O)C7O)[C@H](O)C6O)CC[C@]45C)C2(C)CC(=O)C31 (stereo partly shown) [S6, holotoxin B] | 1.24 | a definite decrease in protein expression |  | 
3 | C=C(C)CCC[C@@]1(C)OC(=O)C23CC=C4C(CCC5C(C)(C)[C@@H](O[C@@H]6OCC(O[C@@H]7OC(CO)C(O)[C@H](O[C@@H]8OC(CO)C(O)[C@H](O)C8O)C7O)[C@H](O)C6O[C@@H]6OC(CO)C(O[C@@H]7OCC(O)[C@H](O[C@@H]8OC(CO)C(O)[C@H](OC)C8O)C7O)[C@H](O)C6O)CC[C@]45C)C2(C)CC(=O)C31 (stereo partly shown) [S5, holotoxin D1] | 1.38 | expression of the related proteins was definitely reduced |  | change of 3T3-L1 cell viability (3T3-L1 cells [3]): a significant decrease was shown
4 | C=C(C)CCC[C@](C)(O)[C@@H]1[C@@H]2CC3(C)C4=CCC5C(C)(C)[C@@H](O[C@@H]6OCC(O[C@@H]7OC(CO)C(O)[C@H](O)C7O)[C@H](O)C6O[C@@H]6OC(C)C(O[C@@H]7OC(CO)C(O)[C@H](O[C@@H]8OC(CO)C(O)[C@H](OC)C8O)C7O)[C@H](O)C6O)CC[C@]5(C)C4CCC13C(=O)O2 (stereo partly shown) [S3] |  |  | 1.1 | expression of adipogenesis-related proteins FAS, PPARγ, C/EBPα, and FABP4 [2, 7]: definitely reduced; expression of adipogenesis-related proteins FAS, PPARγ, C/EBPα, and FABP4 ([2]; from 2.5 μg/ml): expression of the related proteins was definitely reduced; change of 3T3-L1 cell viability (3T3-L1 cells [4]): a significant decrease was shown; inhibition at 1 µg/mL (3T3-L1 cells [5]; Mus musculus, 3T3-L1, 1 μg/ml (lowest of the series from 1 μg/ml to 5 μg/ml), read-out: inhibition of fat accumulation): ~16%; inhibition at 5 µg/mL (3T3-L1 cells [5]; Mus musculus, 3T3-L1, 5 μg/ml (highest of the series from 1 μg/ml to 5 μg/ml), read-out: inhibition of fat accumulation): ~80%; inhibition of fat accumulation (3T3-L1 cells [5]; middle concentration of the series from 1 μg/ml to 5 μg/ml (2.5 μg/ml by the method)): ~40%
5 | C=C(C)CCC[C@](C)(O)[C@@H]1[C@@H]2CC3(C)C4=CCC5C(C)(C)[C@@H](O[C@@H]6OCC(O[C@@H]7OC(CO)C(O)[C@H](O)C7O)[C@H](O)C6O[C@@H]6OC(C)C(O[C@@H]7OC(CO)C(O)[C@H](O)C7O)[C@H](O)C6O)CC[C@]5(C)C4CCC13C(=O)O2 (stereo partly shown) [S9] |  |  | 1.03 | 
6 | C=C(C)CCC[C@@]1(C)OC(=O)C23CC=C4C(CCC5C(C)(C)[C@@H](O[C@@H]6OCC(O[C@@H]7OC(CO)C(O)[C@H](O[C@@H]8OC(CO)C(O)[C@H](OC)C8O)C7O)[C@H](O)C6O[C@@H]6OC(CO)C(O[C@@H]7OC(CO)C(O)[C@H](O[C@@H]8OC(CO)C(O)[C@H](O)C8O)C7O)[C@H](O)C6O)CC[C@]45C)C2(C)CC(=O)C31 (stereo partly shown) [S4] |  |  | 1.6 | expression of adipogenesis-related proteins FAS, PPARγ, C/EBPα, and FABP4 [2, 7]: definitely reduced; expression of adipogenesis-related proteins FAS, PPARγ, C/EBPα, and FABP4 ([2]; from 2.5 μg/ml): expression of the related proteins was definitely reduced; change of 3T3-L1 cell viability (3T3-L1 cells [4]): a significant decrease was shown
7 | C=C(C)CCC[C@](C)(O)[C@@H]1[C@@H]2CC3(C)C4=CCC5C(C)(C)[C@@H](O[C@@H]6OCC(O[C@@H]7OC(CO)C(O)[C@H](O)C7O)[C@H](O)C6O[C@@H]6OC(C)C(O[C@@H]7OC(CO)C(O)[C@H](O[C@@H]8OC(CO)C(O)[C@H](O)C8O)C7O)[C@H](O)C6O)CC[C@]5(C)C4CCC13C(=O)O2 (stereo partly shown) [S2] |  |  | 1.43 | expression of adipogenesis-related proteins FAS, PPARγ, C/EBPα, and FABP4 ([2]; compared to the control, concentration not given): a significant difference in protein expression was not shown
8 | C=C(C)CCC[C@](C)(O)[C@@H]1[C@@H]2CC3(C)C4=CCC5C(C)(C)[C@@H](O[C@@H]6OCC(O[C@@H]7OC(CO)C(O)[C@H](O)C7O)[C@H](O)C6O[C@@H]6OC(CO)C(O[C@@H]7OC(CO)C(O)[C@H](O[C@@H]8OC(CO)C(O)[C@H](O)C8O)C7O)[C@H](O)C6O)CC[C@]5(C)C4CCC13C(=O)O2 (stereo partly shown) [S1] |  |  | 1.25 | 
